“And” between values parts separate entries of the source, which are not always exact repeats. Equal values may be shown once. Toxic doses and inconclusive results are not listed. Square brackets hold non-standard residues; d marks the D form. Peptide text beside a SMILES is read from it. ξ: configuration not given here. Ac5c = NC1(C(=O)O)CCCC1; ξS = NC(CO)C(=O)O
Tested on: L1210 leukemia ip in BDF1 mice, survival T/C
Assay: NCI In Vivo Anticancer Drug Screen. Data for tumor model L1210 Leukemia (intraperitoneal) in B6D2F1 (BDF1) mice
Settings: endpoint: mean survival time, higher = longer survival
Method in brief: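 Antitumor effect is assessed in tumor-bearing animals. Survival in the compound arm is compared with a vehicle-dosed control arm and expressed as their quotient.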

[1] = dose: 100.0 mg/kg/injection, schedule: Q01DX001 (ip), vehicle: saline

`O=C(NP(=O)(N1CC1)N1CC1)c1cc(I)ccc1I` was tested, and the T/C (dose: 1.0 mg/kg/injection, schedule: Q01DX001 (ip), vehicle: saline with Tween-80) was 99 % of control, the T/C (dose: 1.0 mg/kg/injection, schedule: Q01DX001 (ip), vehicle: saline) was 95 % of control and 98 % of control and the T/C (dose: 1.0 mg/kg/injection, schedule: Q01DX001 (oral), vehicle: saline with Tween-80) was 106 % of control. The T/C (dose: 1.0 mg/kg/injection, schedule: Q01DX001 (oral), vehicle: saline) was 97 % of control, the T/C (dose: 1.0 mg/kg/injection, schedule: Q01DX009 (ip), vehicle: saline with Tween-80) was 103 % of control and the T/C (dose: 1.0 mg/kg/injection, schedule: Q01DX009 (ip), vehicle: saline) was 97 % of control. The T/C (dose: 1.0 mg/kg/injection, schedule: Q04DX003 (ip), vehicle: saline with Tween-80) was 107 % of control, the T/C (dose: 1.0 mg/kg/injection, schedule: Q04DX003 (ip), vehicle: saline) was 104 % of control and 111 % of control and the T/C (dose: 2.0 mg/kg/injection, schedule: Q01DX001 (ip), vehicle: saline with Tween-80) was 93 % of control. The T/C (dose: 2.0 mg/kg/injection, schedule: Q01DX001 (ip), vehicle: saline) was 100 % of control and 110 % of control, the T/C (dose: 2.0 mg/kg/injection, schedule: Q01DX001 (oral), vehicle: saline with Tween-80) was 100 % of control and the T/C (dose: 2.0 mg/kg/injection, schedule: Q01DX001 (oral), vehicle: saline) was 94 % of control. The T/C (dose: 2.0 mg/kg/injection, schedule: Q01DX009 (ip), vehicle: saline with Tween-80) was 105 % of control, the T/C (dose: 2.0 mg/kg/injection, schedule: Q04DX003 (ip), vehicle: saline) was 97 % of control and 111 % of control and the T/C (dose: 4.0 mg/kg/injection, schedule: Q01DX001 (ip), vehicle: saline with Tween-80) was 97 % of control. For the same compound, the T/C (dose: 4.0 mg/kg/injection, schedule: Q01DX001 (ip), vehicle: saline) was 100 % of control and 108 % of control, the T/C (dose: 4.0 mg/kg/injection, schedule: Q01DX001 (oral), vehicle: saline with Tween-80) was 107 % of control and the T/C (dose: 4.0 mg/kg/injection, schedule: Q01DX001 (oral), vehicle: saline) was 92 % of control. The T/C (dose: 4.0 mg/kg/injection, schedule: Q01DX009 (ip), vehicle: saline with Tween-80) was 101 % of control, the T/C (dose: 4.0 mg/kg/injection, schedule: Q04DX003 (ip), vehicle: saline with Tween-80) was 101 % of control and the T/C (dose: 4.0 mg/kg/injection, schedule: Q04DX003 (ip), vehicle: saline) was 97 % of control. For the same compound, the T/C (dose: 8.0 mg/kg/injection, schedule: Q01DX001 (ip), vehicle: saline with Tween-80) was 101 % of control, the T/C (dose: 8.0 mg/kg/injection, schedule: Q01DX001 (ip), vehicle: saline) was 99 % of control and 118 % of control and the T/C (dose: 8.0 mg/kg/injection, schedule: Q01DX001 (oral), vehicle: saline with Tween-80) was 101 % of control. For the same compound, the T/C (dose: 8.0 mg/kg/injection, schedule: Q01DX001 (oral), vehicle: saline) was 90 % of control, the T/C (dose: 8.0 mg/kg/injection, schedule: Q01DX009 (ip), vehicle: saline with Tween-80) was 121 % of control and the T/C (dose: 8.0 mg/kg/injection, schedule: Q04DX003 (ip), vehicle: saline with Tween-80) was 115 % of control. For the same compound, the T/C (dose: 8.0 mg/kg/injection, schedule: Q04DX003 (ip), vehicle: saline) was 102 % of control, the T/C (dose: 16.0 mg/kg/injection, schedule: Q01DX001 (ip), vehicle: saline with Tween-80) was 109 % of control and the T/C (dose: 16.0 mg/kg/injection, schedule: Q01DX001 (ip), vehicle: saline) was 100 % of control and 121 % of control. The T/C (dose: 16.0 mg/kg/injection, schedule: Q01DX001 (oral), vehicle: saline with Tween-80) was 102 % of control, the T/C (dose: 16.0 mg/kg/injection, schedule: Q01DX001 (oral), vehicle: saline) was 97 % of control and the T/C (dose: 16.0 mg/kg/injection, schedule: Q04DX003 (ip), vehicle: saline) was 104 % of control. For the same compound, the T/C (dose: 32.0 mg/kg/injection, schedule: Q01DX001 (ip), vehicle: saline with Tween-80) was 112 % of control, the T/C (dose: 32.0 mg/kg/injection, schedule: Q01DX001 (ip), vehicle: saline) was 99 % of control and 110 % of control and the T/C (dose: 32.0 mg/kg/injection, schedule: Q01DX001 (oral), vehicle: saline with Tween-80) was 101 % of control. For the same compound, the T/C (dose: 32.0 mg/kg/injection, schedule: Q01DX001 (oral), vehicle: saline) was 96 % of control, the T/C (dose: 32.0 mg/kg/injection, schedule: Q01DX009 (ip), vehicle: saline with Tween-80) was 155 % of control and the T/C (dose: 32.0 mg/kg/injection, schedule: Q01DX009 (ip), vehicle: saline) was 162 % of control. For the same compound, the T/C (dose: 64.0 mg/kg/injection, schedule: Q01DX001 (ip), vehicle: saline with Tween-80) was 111 % of control, the T/C (dose: 64.0 mg/kg/injection, schedule: Q01DX001 (ip), vehicle: saline) was 105 % of control and 116 % of control and the T/C (dose: 64.0 mg/kg/injection, schedule: Q01DX001 (oral), vehicle: saline with Tween-80) was 98 % of control. The T/C (dose: 64.0 mg/kg/injection, schedule: Q01DX001 (oral), vehicle: saline) was 100 % of control, the T/C (dose: 64.0 mg/kg/injection, schedule: Q01DX009 (ip), vehicle: saline with Tween-80) was 112 % of control and the T/C (dose: 64.0 mg/kg/injection, schedule: Q01DX009 (ip), vehicle: saline) was 183 % of control. For the same compound, the T/C (dose: 128.0 mg/kg/injection, schedule: Q01DX001 (ip), vehicle: saline with Tween-80) was 123 % of control, the T/C (dose: 128.0 mg/kg/injection, schedule: Q01DX001 (ip), vehicle: saline) was 114 % of control and the T/C (dose: 128.0 mg/kg/injection, schedule: Q01DX001 (oral), vehicle: saline with Tween-80) was 109 % of control. For the same compound, the T/C (dose: 128.0 mg/kg/injection, schedule: Q01DX001 (oral), vehicle: saline) was 93 % of control, the T/C (dose: 128.0 mg/kg/injection, schedule: Q01DX009 (ip), vehicle: saline) was 95 % of control and the T/C (dose: 128.0 mg/kg/injection, schedule: Q04DX003 (ip), vehicle: saline with Tween-80) was 176 % of control. The T/C (dose: 128.0 mg/kg/injection, schedule: Q04DX003 (ip), vehicle: saline) was 151 % of control and 159 % of control, the T/C (dose: 256.0 mg/kg/injection, schedule: Q01DX001 (ip), vehicle: saline) was 124 % of control and the T/C (dose: 256.0 mg/kg/injection, schedule: Q01DX001 (oral), vehicle: saline) was 120 % of control. For the same compound, the T/C (dose: 256.0 mg/kg/injection, schedule: Q04DX003 (ip), vehicle: saline with Tween-80) was 105 % of control, the T/C (dose: 256.0 mg/kg/injection, schedule: Q04DX003 (ip), vehicle: saline) was 164 % of control and the T/C (dose: 512.0 mg/kg/injection, schedule: Q01DX001 (ip), vehicle: saline with Tween-80) was 99 % of control. For the same compound, the T/C (dose: 512.0 mg/kg/injection, schedule: Q01DX001 (oral), vehicle: saline) was 122 % of control and the T/C (dose: 512.0 mg/kg/injection, schedule: Q04DX003 (ip), vehicle: saline) was 100 % of control.

With `NC(CO)C(=O)NC1(C(=O)O)CCCC1` (stereo unspecified) (H-[ξS]-[Ac5c]-OH) the T/C [1] was 100 % of control, the T/C (dose: 200.0 mg/kg/injection, schedule: Q01DX001 (ip), vehicle: saline) was 107 % of control and the T/C (dose: 400.0 mg/kg/injection, schedule: Q01DX001 (ip), vehicle: saline) was 107 % of control.

With `O=C(NCCCl)NC1CCCCCCCCCCC1` the T/C (dose: 100.0 mg/kg/injection, schedule: Q01DX009 (ip), vehicle: Klucel (hydroxypropylcellulose) (HPC)) was 98 % of control, the T/C (dose: 100.0 mg/kg/injection, schedule: Q04DX003 (ip), vehicle: Klucel (hydroxypropylcellulose) (HPC)) was 100 % of control and the T/C (dose: 200.0 mg/kg/injection, schedule: Q01DX009 (ip), vehicle: Klucel (hydroxypropylcellulose) (HPC)) was 97 % of control. The T/C (dose: 200.0 mg/kg/injection, schedule: Q04DX003 (ip), vehicle: Klucel (hydroxypropylcellulose) (HPC)) was 102 % of control, the T/C (dose: 400.0 mg/kg/injection, schedule: Q01DX009 (ip), vehicle: Klucel (hydroxypropylcellulose) (HPC)) was 89 % of control and the T/C (dose: 400.0 mg/kg/injection, schedule: Q04DX003 (ip), vehicle: Klucel (hydroxypropylcellulose) (HPC)) was 102 % of control.

For `Cc1nccc(Cl)n1`, the T/C (dose: 100.0 mg/kg/injection, schedule: Q04DX003 (ip), vehicle: saline) was 104 % of control, the T/C (dose: 200.0 mg/kg/injection, schedule: Q04DX003 (ip), vehicle: saline) was 90 % of control and the T/C (dose: 400.0 mg/kg/injection, schedule: Q04DX003 (ip), vehicle: saline) was 93 % of control.

`O=C(O)C(Br)CBr` (stereo unspecified) was tested, and the T/C [1] was 90 % of control.

`CCCCC(C)(O)C(F)(F)F` (stereo unspecified) was tested, and the T/C (dose: 100.0 mg/kg/injection, schedule: Q01DX001 (ip), vehicle: steriod suspending solution) was 96 % of control, the T/C (dose: 200.0 mg/kg/injection, schedule: Q01DX001 (ip), vehicle: steriod suspending solution) was 91 % of control and the T/C (dose: 400.0 mg/kg/injection, schedule: Q01DX001 (ip), vehicle: steriod suspending solution) was 100 % of control.

`CCOC(=O)C(C(=O)OCC)C(C)(C)c1ccccc1` was tested, and the T/C (dose: 100.0 mg/kg/injection, schedule: Q01DX009 (ip), vehicle: saline) was 104 % of control, the T/C (dose: 200.0 mg/kg/injection, schedule: Q01DX009 (ip), vehicle: saline) was 103 % of control and the T/C (dose: 400.0 mg/kg/injection, schedule: Q01DX009 (ip), vehicle: saline) was 101 % of control.

With `O=C1C2CCCC1C(c1ccccc1)C=C2c1ccc(O)cc1` (stereo unspecified) the T/C (dose: 100.0 mg/kg/injection, schedule: Q04DX003 (ip), vehicle: saline with Tween-80) was 97 % of control, the T/C (dose: 200.0 mg/kg/injection, schedule: Q04DX003 (ip), vehicle: saline with Tween-80) was 96 % of control and the T/C (dose: 400.0 mg/kg/injection, schedule: Q04DX003 (ip), vehicle: saline with Tween-80) was 94 % of control.
